For one experiment, the system named is PBMC. The experiment can be described thus: Human PBMC IL-2 assay. It is filed as cell-based. The note with it: anti-CD3/CD28 stimulation overnight, IL-2 level. The method, then: PBMC (frozen) obtained from health donor were thawed in RPMI-1640 medium with 10% FBS and incubated for 4 h at 37° C. In a 96-well plate, −200,000 PBMC cells in 160 uL were added to each assay well. Ten microliter compound solution (10 uM to 0.6 nM, 8 points with 4-fold dilution) were added to cells in each well and incubated for 60 minutes at 37° C. Then 30 uL anti-CD3/CD28 antibody (Catalog #10991, Stemcell) were added to cells and incubated overnight at 37° C. After the incubation, 16 uL supernatants were transferred into a new 384-well white assay plate for cytokine analysis. IL-2 level was quantified using Human IL-2 kit (Catalog #62HIL02PEG, Cisbio) as described in the manufacturer manual.
(§1) X is log of compound concentration, Y is the IL-2 concentration, increasing as X increases.

For the next experiment, the system named is Jurkat cells. The experiment can be described thus: Jurkat IL-2 assay. In kind it is cell-based. The note with it: Homo sapiens, anti-CD3/CD28 stimulation overnight, IL-2 level. The method, then:
Jurkat cells (ATCC) were cultured in RPMI-1640 medium supplemented with 10% FBS. In a 96-well plate, −250,000 cells in 130 uL were added to each assay well. Ten microliter compound solution (5 uM to 2.3 nM, 8 points with 3-fold dilution) were added to cells in each well and incubated for 60 minutes at 37° C. Then 10 uL anti-CD3/CD28 antibody (Catalog #10991, Stemcell) were added and incubated overnight at 37° C. After the incubation, 16 uL supernatants were transferred into a new 384-well white assay plate for cytokine analysis. IL-2 was quantified using Human IL-2 kit (Catalog #62HIL02PEG, Cisbio) as described in the manufacturer manual.
as §1

A word on the EC50: it is the concentration at which the effect is half-maximal. As for `CCC(c1ccc(F)c(F)c1)N1C[C@H]2COc3c(c4nc(C#N)ccc4n(C)c3=O)N2C[C@H]1CC` (single isomer, unassigned) [Compound 183], the concentration giving a half-maximal response (EC50) in the experiment on PBMC worked out at 156 nM; with Jurkat cells, 77 nM.

Regarding `CC[C@H]1CN([C@@H](CC)c2nc(C(F)(F)F)no2)[C@H](CC)CN1c1nc2nncn2c2ccc(C#N)nc12` (stereo in doubt) [Compound 135], the results for the concentration for a half-maximal effect (EC50) in the experiment on PBMC and with Jurkat cells were 69 nM and 70 nM, respectively.

Take `CC[C@H]1CN([C@@H](CC)c2ccc(C(F)(F)F)cc2C)[C@H](CC)CN1c1nc2nncn2c2ccc(C#N)nc12` (stereo in doubt) [Compound 137]: the EC50 in the experiment with PBMC is 96 nM; in the experiment with Jurkat cells it was 248 nM.

Consider `Cn1c(=O)nc(N2CCC[C@]3(CC2)CC(c2ccc(OC(F)(F)F)cc2)=NO3)c2nc(C#N)ccc21` (stereo in doubt) [Compound 139], for which the half-maximal effective concentration (EC50) with PBMC came out at 869 nM; in the experiment with Jurkat cells, 251 nM.

Take `Cn1c(=O)nc(N2CCC[C@@]3(CC2)CC(c2ccc(OC(F)(F)F)cc2)=NO3)c2nc(C#N)ccc21` (stereo in doubt) [Compound 140]: the results for the EC50 in the experiment on PBMC and with Jurkat cells were 259 nM and 598 nM, respectively.

Take `CC[C@@H]1CN2c3c(c(=O)n(C)c4ccc(C#N)nc34)OC[C@@H]2CN1[C@H](CC)c1ccc(C(F)(F)F)cc1F` (stereo in doubt) [Compound 143]: the EC50 was 178 nM in the experiment with PBMC and 483 nM with Jurkat cells.

Take `CC[C@@H]1CN2c3c(c(=O)n(C)c4ccc(C#N)nc34)OC[C@@H]2CN1[C@@H](CC)c1ccc(C(F)(F)F)cc1F` (stereo in doubt) [Compound 144]: the results for the 50% effective concentration (EC50) with PBMC and with Jurkat cells were 61 nM and 76 nM, respectively.

Take `CC[C@@H]1CN2c3c(c(=O)n(C)c4ccc(C#N)nc34)OC[C@@H]2CN1[C@@H](CC)c1c(F)cc(F)cc1F` (stereo in doubt) [Compound 147]: the EC50 was 96 nM in the experiment on PBMC and 55 nM with Jurkat cells.

As for `CC[C@@H]1CN2c3c(c(=O)n(C)c4ccc(C#N)nc34)OC[C@@H]2CN1[C@H](CC)c1cccc(C(F)(F)F)c1` (stereo in doubt) [Compound 148], the concentration for a half-maximal effect (EC50) in the experiment with PBMC came to 582 nM; in the experiment on Jurkat cells, 209 nM.

Consider `CC[C@@H]1CN2c3c(c(=O)n(C)c4ccc(C#N)nc34)OC[C@@H]2CN1[C@@H](CC)c1cccc(C(F)(F)F)c1` (stereo in doubt) [Compound 149], for which the EC50 in the experiment on PBMC was 162 nM; in the experiment with Jurkat cells, 76 nM.

For the compound `CCC[C@@H](c1ccc(C(F)(F)F)cc1)N1C[C@H]2COc3c(c4nc(C#N)ccc4n(C)c3=O)N2C[C@H]1CC` (stereo in doubt) [Compound 153], the half-maximal effective concentration (EC50) in the experiment on PBMC is 85 nM; with Jurkat cells it was 43 nM.

Regarding `CC[C@@H]1CN2c3c(c(=O)n(C)c4ccc(C#N)nc34)OC[C@@H]2CN1[C@H](c1ccc(Cl)cc1)c1ccccn1` (stereo in doubt) [Compound 156], the figures for the EC50 with PBMC and in the experiment with Jurkat cells were 83 nM and 124 nM, respectively.

As for `CCC[C@@H]1CN2c3c(c(=O)n(C)c4ccc(C#N)nc34)OC[C@@H]2CN1[C@H](C)c1ccc(C(F)(F)F)cc1` (stereo in doubt) [Compound 158], the concentration giving a half-maximal response (EC50) amounted to 579 nM in the experiment with PBMC and 277 nM with Jurkat cells.

With `CC[C@@H]1CN2c3c(c(=O)n(C)c4ccc(C#N)nc34)OC[C@@H]2CN1[C@@H](c1ccc(F)cc1)c1nc(C2CC2)no1` (stereo in doubt) [Compound 159], the EC50 amounted to 41 nM in the experiment with PBMC and 12 nM with Jurkat cells.

For `CC[C@@H]1CN2c3c(c(=O)n(C)c4ccc(C#N)nc34)OC[C@@H]2CN1[C@H](c1ccc(F)cc1)c1nc(C2CC2)no1` (stereo in doubt) [Compound 160], the concentration for a half-maximal effect (EC50) with PBMC came out at 75 nM; in the experiment with Jurkat cells it was 21 nM.

In the case of `CC[C@@H]1CN2c3c(c(=O)n(C)c4ccc(C#N)nc34)OC[C@@H]2CN1[C@@H](CC)c1ccc(C#N)cc1` (stereo in doubt) [Compound 161], the EC50 in the experiment with PBMC worked out at 53 nM; in the experiment with Jurkat cells, 26 nM.

Consider `CC[C@@H]1CN2c3c(c(=O)n(C)c4ccc(C#N)nc34)OC[C@@H]2CN1[C@H](CC)c1ccc(C#N)cc1` (stereo in doubt) [Compound 162], for which the EC50 in the experiment on PBMC is 786 nM; with Jurkat cells, 100 nM.

In turn, `CCC[C@@H]1CN2c3c(c(=O)n(C)c4ccc(C#N)nc34)OC[C@@H]2CN1[C@@H](C)c1ccc(OCC2CC2)cc1F` (stereo in doubt) [Compound 163] returned an EC50 with PBMC of 340 nM.

Turning to `CCC[C@@H]1CN2c3c(c(=O)n(C)c4ccc(C#N)nc34)OC[C@@H]2CN1[C@H](C)c1ccc(OCC2CC2)cc1F` (stereo in doubt) [Compound 164], in the experiment on PBMC, a half-maximal response (EC50) required 233 nM.

Regarding `CC[C@@H]1CN2c3c(c(=O)n(C)c4ccc(C#N)nc34)OC[C@@H]2CN1[C@H](CC)c1c(F)ccc(F)c1F` (stereo in doubt) [Compound 171], a half-maximal response in the experiment with PBMC (EC50) required 1250 nM.

On to `CC[C@H](c1ccc(C(F)(F)F)cc1)N1C[C@H]2COc3c(c4nc(C#N)ccc4n(C)c3=O)N2C[C@H]1C` (stereo in doubt) [Compound 178], for which the EC50 in the experiment on PBMC was 299 nM.

In the experiment on PBMC, `CC[C@@H]1CN2c3c(c(=O)n(C)c4ccc(C#N)nc34)OC[C@@H]2CN1[C@H](CC)c1ccc(F)c(F)c1` (stereo in doubt) [Compound 182] registered a concentration giving a half-maximal response (EC50) of 1880 nM.

As to `CC[C@@H]1CN2c3c(c(=O)n(C)c4ccc(C#N)nc34)OC[C@@H]2CN1[C@H](CC)c1ccc(S(C)(=O)=O)cc1` (stereo in doubt) [Compound 185], the concentration for a half-maximal effect (EC50) with PBMC was found to be 7230 nM.

`CC[C@@H]1CN2c3c(c(=O)n(C)c4ccc(C#N)nc34)OC[C@@H]2CN1[C@H](CC)c1ccc(C(F)(F)F)cn1` (stereo in doubt) [Compound 187] registered an EC50 in the experiment on PBMC of 322 nM.

In turn, `CC[C@H]1CN([C@@H](CC)c2ccc(C3CC3)nc2)[C@H](CC)CN1c1nc2nncn2c2ccc(C#N)nc12` (stereo in doubt) [Compound 188] registered an EC50 in the experiment with PBMC of 577 nM.

Regarding `CC[C@H]1CN([C@H](CC)c2ccc(C3CC3)nc2)[C@H](CC)CN1c1nc2nncn2c2ccc(C#N)nc12` (stereo in doubt) [Compound 189], the EC50 in the experiment on PBMC came out at 276 nM. Compared with the last compound, the EC50 is about 2.1-fold lower.

In turn, `CC[C@H](c1ccc(F)c(Cl)c1)N1C[C@H]2COc3c(c4nc(C#N)ccc4n(C)c3=O)N2C[C@H]1C` (stereo in doubt) [Compound 237] had a concentration giving a half-maximal response (EC50) with PBMC of 1330 nM. Against the preceding compound, the EC50 is about 4.8-fold higher.

Take `CC[C@@H]1CN2c3c(c(=O)n(C4CCC4)c4ccc(C#N)nc34)OC[C@@H]2CN1[C@@H](CC)c1ccc(C(F)(F)F)cc1` (stereo in doubt) [Compound 263]: in the experiment on Jurkat cells, a half-maximal response (EC50) required 582 nM.

On to `C[C@@H]1CN2c3c(c(=O)n(C)c4ccc(C#N)nc34)OC[C@@H]2CN1[C@@H](C)c1ccc(Cl)cc1Cl` (stereo in doubt) [Compound 268], for which, in the experiment with PBMC, the response was half-maximal at 890 nM (EC50). In other words, the sub-micromolar range.

Take `Cc1ccc2oc(C3(C)CCN(c4c(C#N)c(=O)n(C)c5ccc(C#N)nc45)CC3)nc2c1` [Compound 7]: the EC50 with PBMC was 372 nM.

In turn, `C[C@H]1CC2(CCN1c1nc(=O)n(C)c3ccc(C#N)nc13)CC(c1ccc(OC(F)(F)F)cc1)=NO2` (stereo partly drawn) [Compound 50] showed an EC50 with Jurkat cells of 435 nM.

For `CC[C@@H]1CN2c3c(c(=O)n(C)c4ccc(C#N)nc34)OC[C@@H]2CN1c1nc2cc(C)ccc2o1` [Compound 165], the EC50 with PBMC worked out at 375 nM.

`CC[C@H]1CN2[C@@H](COC[C@@H]2c2ccc(C(F)(F)F)cc2)CN1c1nc2nncn2c2ccc(C#N)nc12` [Compound 192] came in with a concentration for a half-maximal effect (EC50) in the experiment with PBMC of 3050 nM.

As for `CC[C@@H]1CN2c3c(c(=O)n(C)c4ccc(C#N)nc34)N(C)C[C@@H]2CN1[C@H](CC)c1ccc(C(F)(F)F)cc1` [Compound 220], a half-maximal response in the experiment with PBMC (EC50) required 3840 nM.
